The source made the active and inactive calls. Where only a bound is given, the exact number is not on record here.

The results in this text go back to ChEMBL document CHEMBL1201862, “PubChem BioAssay data set” (2004).

The target of assay [1] is T1, Eukaryotic translation initiation factor 2-alpha kinase 3 (Homo sapiens, UniProt Q9NZJ5). Kind of assay: Counterscreen assay for PERK inhibitors: Dose response cell-based high throughput screening assay to measure inhibition of PERK at 6 hours. [Related pubchem assays: 1522, 1416 ]. Type of assay: functional. In general terms: A counterscreen serves to expose hits that act by an unwanted route or on another target.
T1 sequence (Q9NZJ5 whole entry): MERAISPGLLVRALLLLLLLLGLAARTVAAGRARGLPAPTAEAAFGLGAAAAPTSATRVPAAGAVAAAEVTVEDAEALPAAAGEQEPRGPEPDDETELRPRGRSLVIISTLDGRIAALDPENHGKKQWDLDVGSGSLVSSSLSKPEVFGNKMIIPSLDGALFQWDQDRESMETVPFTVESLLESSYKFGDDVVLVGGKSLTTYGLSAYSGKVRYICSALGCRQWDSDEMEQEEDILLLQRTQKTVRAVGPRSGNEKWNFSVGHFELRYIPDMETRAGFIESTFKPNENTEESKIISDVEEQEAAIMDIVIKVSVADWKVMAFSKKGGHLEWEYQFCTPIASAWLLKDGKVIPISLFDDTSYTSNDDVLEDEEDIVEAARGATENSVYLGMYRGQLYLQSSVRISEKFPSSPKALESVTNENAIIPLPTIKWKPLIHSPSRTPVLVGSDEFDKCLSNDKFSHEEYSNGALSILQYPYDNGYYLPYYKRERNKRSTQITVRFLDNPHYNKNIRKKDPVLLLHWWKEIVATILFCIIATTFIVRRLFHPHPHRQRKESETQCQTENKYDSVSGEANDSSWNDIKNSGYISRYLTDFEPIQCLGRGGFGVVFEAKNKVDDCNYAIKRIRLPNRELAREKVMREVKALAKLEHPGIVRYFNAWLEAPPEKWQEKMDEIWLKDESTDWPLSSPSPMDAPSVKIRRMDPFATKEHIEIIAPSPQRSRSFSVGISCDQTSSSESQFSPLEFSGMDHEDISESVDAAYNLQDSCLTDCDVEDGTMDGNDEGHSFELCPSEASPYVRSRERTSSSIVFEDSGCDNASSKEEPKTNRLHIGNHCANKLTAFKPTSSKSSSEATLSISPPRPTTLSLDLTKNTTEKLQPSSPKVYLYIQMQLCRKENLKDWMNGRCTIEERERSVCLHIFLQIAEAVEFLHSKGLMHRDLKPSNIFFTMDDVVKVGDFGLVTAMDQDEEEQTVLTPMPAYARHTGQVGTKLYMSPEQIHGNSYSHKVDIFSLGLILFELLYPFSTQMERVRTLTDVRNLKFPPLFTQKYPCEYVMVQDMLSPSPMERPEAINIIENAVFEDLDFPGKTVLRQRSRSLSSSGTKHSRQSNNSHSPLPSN

The target in assay [2] is T1, Eukaryotic translation initiation factor 2-alpha kinase 3. Kind of assay: Dose response cell-based high-throughput screening assay to measure PERK inhibition. [Related pubchem assays: 1416 ]. Type of assay: functional.
Assay [3] has as its target G-protein coupled receptor 35 (Homo sapiens, UniProt Q9HC97). Kind of assay: inhibition of zaprinast-stimulated GPR35 beta-arrestin translocation – imaging, U2OS, beta-arrestin-GFP, zaprinast agonist, primary screen (AID 2058).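 Note: antagonist potency meaning inhibition of agonist-induced arrestin redistribution.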 Type of assay: functional.
In assay [4] the target is Interleukin-8 (Homo sapiens, UniProt P10145). The experiment in a line: SAR analysis of tumor necrosis factor alpha (TNF-alpha) induced IL-8 secretion in MCF-7/NOD1 cells. [Related pubchem assays (depositor defined):AID1575, AID2250, AID2260]. Type of assay: functional, cell-based.
Interleukin-8, sequence (P10145 whole entry): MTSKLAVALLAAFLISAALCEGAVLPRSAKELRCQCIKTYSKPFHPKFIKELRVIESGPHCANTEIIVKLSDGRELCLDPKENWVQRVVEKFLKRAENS
Assay [5] deals with Tumor necrosis factor (Homo sapiens, UniProt P01375). The experiment in a line: analog potency on TNFa NF-kB signaling – cell-based, revised, SAR follow-up (AID 2337). Type of assay: functional.
Tumor necrosis factor, sequence (P01375 whole entry): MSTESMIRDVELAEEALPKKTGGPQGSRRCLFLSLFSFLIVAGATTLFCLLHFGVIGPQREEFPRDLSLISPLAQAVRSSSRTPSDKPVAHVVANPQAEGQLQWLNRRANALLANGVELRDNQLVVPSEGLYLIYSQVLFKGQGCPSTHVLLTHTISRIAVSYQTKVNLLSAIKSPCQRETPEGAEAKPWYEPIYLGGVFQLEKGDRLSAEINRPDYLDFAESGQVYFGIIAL
Assay [6] concerns HEK293. The experiment in a line: cells. As to conditions: Homo sapiens.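 Note: cells exposed to compound for 14 hours overnight before viability readout.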
The target of assay [7] is T2, Tyrosine-protein phosphatase non-receptor type 7 (Homo sapiens, UniProt P35236).
T2 sequence (P35236 whole entry): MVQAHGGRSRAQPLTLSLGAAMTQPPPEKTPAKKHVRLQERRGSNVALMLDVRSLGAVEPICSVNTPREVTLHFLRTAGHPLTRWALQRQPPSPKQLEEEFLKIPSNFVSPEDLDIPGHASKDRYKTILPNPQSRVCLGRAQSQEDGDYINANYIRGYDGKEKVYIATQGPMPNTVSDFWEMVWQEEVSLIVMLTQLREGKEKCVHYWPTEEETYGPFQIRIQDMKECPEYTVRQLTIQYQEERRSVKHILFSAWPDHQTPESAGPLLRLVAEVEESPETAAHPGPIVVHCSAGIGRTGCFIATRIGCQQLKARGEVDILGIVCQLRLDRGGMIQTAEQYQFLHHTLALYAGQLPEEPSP
The experiment in a line: redox-active compounds inhibiting HePTP phosphatase – biochemical, fluorescence, mechanism study (AID 2068). Type of assay: functional.

For assay [8], the target named is Estrogen receptor beta (Homo sapiens, UniProt Q92731). The experiment in a line: blockers of SRC-3 recruitment to ERβ – biochemical, ELISA, streptavidin-HRP readout, orthogonal assay, confirmation (AID 1060). A general note: ELISA stands for enzyme-linked immunosorbent assay.
The target in assay [9] is NS3 (Hepatitis C virus, UniProt A3EZJ3). Kind of assay: PubChem AID 2173. More on the design: species or system Hepacivirus hominis.
In assay [10] the target is T3, Voltage-gated N-type calcium channel alpha-1B subunit/Amyloid beta A4 precursor protein-binding family A member 1 (Homo sapiens, UniProt Q00975+Q02410). The experiment in a line: disruptors of Mint-PDZ/N-type channel peptide interaction – biochemical, HTRF, SAR follow-up (AID 2489). Type of assay: functional. For orientation: Time-resolved FRET reads energy transfer from a long-lived donor to a nearby acceptor.
T3 sequence (Q00975 whole entry): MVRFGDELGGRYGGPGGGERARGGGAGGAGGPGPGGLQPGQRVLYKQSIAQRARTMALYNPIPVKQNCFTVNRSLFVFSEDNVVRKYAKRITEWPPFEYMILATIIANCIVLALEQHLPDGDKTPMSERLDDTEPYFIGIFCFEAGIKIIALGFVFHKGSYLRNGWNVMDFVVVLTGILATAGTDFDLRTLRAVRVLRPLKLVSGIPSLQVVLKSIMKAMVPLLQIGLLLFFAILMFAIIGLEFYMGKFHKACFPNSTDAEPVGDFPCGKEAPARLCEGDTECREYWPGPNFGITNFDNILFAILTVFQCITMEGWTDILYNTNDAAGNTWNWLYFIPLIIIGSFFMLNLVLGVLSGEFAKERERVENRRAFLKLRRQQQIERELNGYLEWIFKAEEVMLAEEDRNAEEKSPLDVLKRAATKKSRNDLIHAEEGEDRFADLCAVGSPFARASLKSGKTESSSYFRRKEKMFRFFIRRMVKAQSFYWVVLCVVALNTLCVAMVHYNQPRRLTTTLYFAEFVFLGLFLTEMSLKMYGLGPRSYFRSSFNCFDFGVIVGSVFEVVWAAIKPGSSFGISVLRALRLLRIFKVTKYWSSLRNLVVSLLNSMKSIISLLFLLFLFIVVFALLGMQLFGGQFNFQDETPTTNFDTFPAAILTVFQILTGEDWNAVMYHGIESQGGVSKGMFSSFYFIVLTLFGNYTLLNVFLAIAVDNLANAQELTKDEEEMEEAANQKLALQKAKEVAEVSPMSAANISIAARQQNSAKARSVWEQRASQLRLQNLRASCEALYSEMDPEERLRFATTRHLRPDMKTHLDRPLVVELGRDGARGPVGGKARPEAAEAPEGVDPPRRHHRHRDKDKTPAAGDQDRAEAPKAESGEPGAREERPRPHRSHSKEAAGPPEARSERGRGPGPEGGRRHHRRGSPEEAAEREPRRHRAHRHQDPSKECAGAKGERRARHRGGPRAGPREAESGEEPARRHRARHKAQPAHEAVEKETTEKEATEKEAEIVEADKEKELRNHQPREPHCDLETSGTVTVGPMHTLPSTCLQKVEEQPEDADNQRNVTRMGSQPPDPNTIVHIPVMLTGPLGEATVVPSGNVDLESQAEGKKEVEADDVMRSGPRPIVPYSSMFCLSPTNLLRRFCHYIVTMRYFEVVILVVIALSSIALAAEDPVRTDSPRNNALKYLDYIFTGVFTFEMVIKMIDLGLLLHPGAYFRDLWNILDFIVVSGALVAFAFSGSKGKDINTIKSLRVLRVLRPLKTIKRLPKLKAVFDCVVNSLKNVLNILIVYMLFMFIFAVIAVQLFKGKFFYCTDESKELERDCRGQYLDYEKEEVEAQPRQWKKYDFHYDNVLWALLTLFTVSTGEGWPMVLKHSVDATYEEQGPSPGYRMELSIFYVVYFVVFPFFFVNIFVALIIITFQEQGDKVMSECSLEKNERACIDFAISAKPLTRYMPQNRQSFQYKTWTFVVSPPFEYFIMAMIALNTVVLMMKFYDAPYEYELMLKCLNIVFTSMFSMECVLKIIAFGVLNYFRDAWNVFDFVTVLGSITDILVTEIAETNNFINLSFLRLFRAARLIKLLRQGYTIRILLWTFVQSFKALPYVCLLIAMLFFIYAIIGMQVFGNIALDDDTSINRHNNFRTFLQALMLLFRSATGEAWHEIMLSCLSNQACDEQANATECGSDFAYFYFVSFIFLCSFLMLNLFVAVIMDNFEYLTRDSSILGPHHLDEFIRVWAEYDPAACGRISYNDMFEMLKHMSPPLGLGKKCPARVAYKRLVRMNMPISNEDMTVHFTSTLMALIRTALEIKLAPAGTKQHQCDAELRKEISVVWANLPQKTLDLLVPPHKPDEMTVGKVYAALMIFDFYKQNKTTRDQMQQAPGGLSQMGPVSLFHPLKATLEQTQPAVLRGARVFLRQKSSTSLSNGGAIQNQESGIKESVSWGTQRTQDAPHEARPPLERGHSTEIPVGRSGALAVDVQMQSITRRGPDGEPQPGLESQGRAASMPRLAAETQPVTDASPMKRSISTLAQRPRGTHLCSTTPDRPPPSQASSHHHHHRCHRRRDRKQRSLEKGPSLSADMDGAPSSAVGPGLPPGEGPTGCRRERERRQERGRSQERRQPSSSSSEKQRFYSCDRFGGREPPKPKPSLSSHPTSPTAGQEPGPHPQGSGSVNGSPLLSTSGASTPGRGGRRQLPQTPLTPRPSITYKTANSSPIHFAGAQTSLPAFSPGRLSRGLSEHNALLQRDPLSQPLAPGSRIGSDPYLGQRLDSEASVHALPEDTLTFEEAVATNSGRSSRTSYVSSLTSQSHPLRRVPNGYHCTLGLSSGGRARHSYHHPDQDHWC
T3 sequence (Q02410 whole entry): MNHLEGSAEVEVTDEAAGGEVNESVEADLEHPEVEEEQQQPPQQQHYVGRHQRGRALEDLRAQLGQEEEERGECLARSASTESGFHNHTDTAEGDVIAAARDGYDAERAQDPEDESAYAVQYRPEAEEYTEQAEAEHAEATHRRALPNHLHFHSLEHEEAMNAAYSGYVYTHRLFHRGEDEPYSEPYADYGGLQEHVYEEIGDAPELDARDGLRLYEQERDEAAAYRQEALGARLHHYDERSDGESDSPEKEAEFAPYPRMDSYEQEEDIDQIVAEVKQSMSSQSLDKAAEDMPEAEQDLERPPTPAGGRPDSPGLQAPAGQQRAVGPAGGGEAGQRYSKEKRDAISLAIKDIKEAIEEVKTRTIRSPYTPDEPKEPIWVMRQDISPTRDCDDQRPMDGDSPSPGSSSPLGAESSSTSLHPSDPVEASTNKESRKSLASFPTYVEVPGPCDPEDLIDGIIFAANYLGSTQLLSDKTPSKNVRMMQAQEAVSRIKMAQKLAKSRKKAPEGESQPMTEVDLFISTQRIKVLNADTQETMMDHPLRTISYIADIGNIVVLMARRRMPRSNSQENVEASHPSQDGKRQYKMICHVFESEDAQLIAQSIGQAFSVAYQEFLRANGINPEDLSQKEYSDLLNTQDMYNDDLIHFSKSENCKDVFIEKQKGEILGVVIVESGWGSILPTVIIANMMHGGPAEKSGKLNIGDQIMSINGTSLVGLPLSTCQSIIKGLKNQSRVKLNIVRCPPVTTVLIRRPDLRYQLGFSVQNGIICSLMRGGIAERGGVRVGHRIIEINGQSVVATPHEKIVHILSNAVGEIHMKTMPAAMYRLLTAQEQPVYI

Assay [11] deals with T3, Voltage-gated N-type calcium channel alpha-1B subunit/Amyloid beta A4 precursor protein-binding family A member 1. Type of assay: protein assay.
Assay [12] shares this target. Type of assay: protein assay. The source holds these as a separate data set.
Assay [13] deals with Acyl-homoserine lactone acylase PvdQ (Pseudomonas aeruginosa (strain LESB58), UniProt Q9I194). Kind of assay: PvdQ acylase enzyme activity blockers – biochemical, fluorescence, plate reader and imaging, cherry-picks, dose response (AID 493231).

G-protein coupled receptor 35, sequence (Q9HC97 whole entry): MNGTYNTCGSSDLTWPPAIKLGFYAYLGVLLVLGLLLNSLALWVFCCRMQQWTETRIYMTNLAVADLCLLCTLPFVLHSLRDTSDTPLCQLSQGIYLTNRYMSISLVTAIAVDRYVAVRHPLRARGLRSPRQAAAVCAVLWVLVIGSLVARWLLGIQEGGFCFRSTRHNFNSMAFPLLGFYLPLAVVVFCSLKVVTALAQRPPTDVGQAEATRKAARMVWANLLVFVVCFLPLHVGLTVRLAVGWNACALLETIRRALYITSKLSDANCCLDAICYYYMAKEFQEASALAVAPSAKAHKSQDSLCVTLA

Regarding `CCS(=O)(=O)N1CCC(C(=O)NCc2ccc(F)cc2)CC1`, the EC50 in [1] and in [2] was > 55.7 µM (not active) throughout.
As to `C=CCCCCCCCCc1nnc(SCC(=O)O)[nH]1`, the half-maximal inhibitory concentration (IC50) in assay [3] was 0.553 µM (active).
`Nc1nc2ccccc2n1S(=O)(=O)c1ccccc1`: the IC50 in [4] was > 5 µM (inactive); in assay [5], > 20 µM (inactive); in assay [6], > 20 µM (inactive).
As to `O=C(NC1CCCC1)c1ccc2nc(-c3ccco3)c(-c3ccco3)nc2c1`, the concentration for half-maximal inhibition (IC50) is 2.94 µM (active) in assay [7]; 0.478 µM (not active) in assay [8]; 5.49 µM (active) in [9]; > 56.8 µM (inactive) in assay [10]; 26 µM (active) in [11]; 2.28 µM (active) in assay [12].
Take `N#CC(c1cccc(Cl)c1)c1ncc(C(F)(F)F)cc1Cl` (stereo not drawn): the concentration at half-maximal activity (AC50) in assay [13] is 2.74 µM (active).

The term EC50 denotes the concentration at which the effect is half-maximal. Read a high EC50 as a less potent agent. Usually IC50 stands for the concentration at which inhibition is half-maximal. By AC50 is commonly meant the midpoint of the concentration-response curve, whichever way the signal moves.
